From US10736888B2, “Triple combination” (HELPERBY THERAPEUTICS LIMITED, priority 2015, dated 2020)

How the values were obtained:
S. aureus on pig skin = test: antimicrobial activity against S. aureus on pig skin (swab, CFU counting, log kill); format: cell-based, Staphylococcus aureus (Oxford); conditions: Example 3; 2 hours after application; inoculum 7.6 (7.62 = complete kill)
Method: Staphylococcus aureus (Oxford); Gram positive; Reference strain.
Bacterial cultures were prepared by inoculation of 10 ml of nutrient broth with a single colony of bacteria on blood agar or TSA and incubated at 37° C. with continuous shaking at 100 rpm for 16 to 24 hours. The overnight cultures were used for experimental tests.
For CFU counting, the bacterial suspensions were diluted using sterile deionized water or phosphate-buffered saline (PBS, Sigma Aldrich Ltd, Poole, Dorset, UK). 100 μl of 10-fold serial dilutions of bacteria culture were plated on one third of TSA plates in triplicate and incubated 24 to 48 hours at 37° C. The number of cells presented on the plates was counted using an AcoLyte colony counter (Synbiosis) and results were expressed as Colony Forming Units/ml (CFU/ml).
The efficacy of each of the above formulations F017A, F017B and F019 was assessed against S. aureus on pig skin. The S. aureus culture was grown overnight according to methods known in the art. The overnight culture was then spread on pig skin: 40 μl of culture was used for 2 cm^3 of pig skin. Each of the formulations F017A, F017B and F019 was then applied to the pig skin.
After 2 hours and 5 hours from application of each formulation, the pig skin was swabbed and bacteria on the swab were processed for CFU counting. The results for F017A, F017B and F019 against a control experiment (where no triple combination was applied to the pig skin) and against commercially available products Bactroban® cream (mupirocin) and Naseptin® (chlorhexidine and neomycin) are shown in FIG. 1.
The efficacy of each of the above formulations F017A, F017B and F019 was again assessed against S. aureus on pig skin. The S. aureus culture was grown overnight according to methods known in the art. The overnight culture was then spread on pig skin: 40 μl of culture was used for 2 cm^3 of pig skin. […]
The efficacy of each of the above formulations F017A, F022A, F022B, F022C, F022D, F022E, F022F, and F022G was assessed against S. aureus on pig skin. […]

[1] = test system: clinically latent microorganisms; test: screening for ability to kill clinically latent microorganisms (WO2000028074 method); format: cell-based
From the text: International Patent Application, Publication Number WO2000028074 describes a method of screening compounds to determine their ability to kill clinically latent microorganisms. […] This observation has necessitated the development of novel antimicrobials which may be used to kill clinically latent microorganisms.
By way of example, WO2000028074 describes a suitable method of screening compounds to determine their ability to kill clinically latent microorganisms. A typical method may include the following steps: • (1) growing a bacterial culture to stationary phase; • (2) treating the stationary phase culture with one or more antimicrobial agents at a concentration and or time sufficient to kill growing bacteria, thereby selecting a phenotypically resistant sub-population; • (3) incubating a sample of the phenotypically resistant subpopulation with one or more test compounds or agents; and • (4) assessing any antimicrobial effects against the phenotypically resistant subpopulation.

Row | Molecule | Log Kill 2 h (S. aureus on pig skin) | activity against clinically latent microorganisms [1]
1 | Cc1nc2ccc(Oc3ccccc3)cc2c2c1CCN2CCc1ccccc1 [HT61, 4-methyl-8-phenoxy-1-(2-phenylethyl)-2,3-dihydro-1H-pyrrolo[3,2-c]quinoline] | 1.87 | –
2 | C/C(=C\C(=O)OCCCCCCCCC(=O)O)C[C@@H]1OC[C@H](C[C@@H]2O[C@H]2[C@@H](C)[C@H](C)O)[C@@H](O)[C@H]1O [mupirocin] | 0.49 | little or no activity
3 | neomycin | 4.56 | little or no activity
